Assay results from publication PMC5872125, “Fragment-Based Discovery of Inhibitors of the Bacterial DnaG-SSB Interaction” (Antibiotics, 2018).
Several values for one entry are separate records, joined by “and”; a condition that tells them apart may be missing. Equal entries are not always repeated.

How the values were obtained:
[1] = molecular target: T1, DnaGC (C-terminal helicase-binding domain of DnaG primase) (Escherichia coli, UniProt P0ABS5); assay: 15N–1H HSQC NMR titration (binding affinity); details: 15N–1H HSQC titration, change in chemical shift with incremental additions of ligand; roughly estimated
T1 construct: made in house
Procedure: The final volume of each sample was 150 μL. The recording time was 30 min for each ^15N–^1H HSQC experiment. A standard pulse sequence was used for data acquisition. Spectra were recorded at 298 K with a Bruker Avance 600 MHz NMR spectrometer equipped with cryoprobe and auto-sample changer. […] The spectra were processed with TOPSPIN 3.1 and analyzed using CCPN [43]. Weighted CSP values were calculated as
Binding affinities were estimated by incremental titration of fragments into protein, with recording of a ^15N–^1H HSQC experiment at each concentration point. Compound solubilities were tested to determine the highest concentrations of ligands used in assays. Equilibrium dissociation constants from NMR titration data were derived using the “single site-specific binding with ligand depletion” model in GraphPad Prism v.6.0 (La Jolla, CA, USA).

[2] = molecular target: T2, DnaGC (Escherichia coli, UniProt P0ABS5); assay: 1D 19F-NMR binding; details: compound 1 mM, 50 μM DnaGC (20-fold excess)
T2 construct: made in house
Description: The observed NMR peak shifts were consistent with the docked orientation. The negatively charged tetrazole is predicted to form favorable electrostatic and hydrogen bond interactions with the side chains of K447 and R452. The methyl groups of L446, M451, L455, L484 T515 and L519 form a hydrophobic pocket accommodating two aromatic rings of the compound. One of the fluorine atoms is about 3 Å from the amide group of G481 while the second at the para-position of the phenoxy group points out of the pocket toward K518. In the docked conformation, these fluorine atoms are involved in hydrogen bond formation with these two residues (Figure 4). To test the docked orientation of 5, 1D ^19F-NMR was carried out using a 20-fold excess of compound over protein.
(§1) 1D ^19F-NMR spectra were recorded on a Bruker Avance III 400 MHz NMR spectrometer (Bruker, Karlsruhe, Germany) equipped with the two-channel BBO probe with z-gradient at 300 K. All ^19F-NMR spectra were recorded with 256 scans for fragment and complex samples sequentially. Fragments dissolved in ^2H6-DMSO were diluted in HSQC buffer to give final fragment and protein concentrations of 1 mM and 50 μM, respectively.

[3] = molecular target: E. coli χ (Escherichia coli, UniProt P28905); assay: 1D 19F-NMR binding; details: in the presence of E. coli χ
Procedure: The fragments identified here and the first generation of optimized leads for DnaGC were tested against other SSB-Ct binding partners including E. coli PriA, E. coli RNAse HI, and the χ subunit of E. coli and Acinetobacter baumannii DNA polymerase III. STD-NMR was used to assess binding.
as §1

T1 sequence (P0ABS5 434-581): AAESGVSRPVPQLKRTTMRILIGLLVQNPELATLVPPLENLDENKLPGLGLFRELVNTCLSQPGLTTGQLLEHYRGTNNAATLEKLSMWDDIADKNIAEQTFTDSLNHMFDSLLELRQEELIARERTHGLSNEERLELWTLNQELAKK
T2 sequence (P0ABS5 434-581): as above
Chain of E. coli χ (P28905 whole entry, the tested form may be a part): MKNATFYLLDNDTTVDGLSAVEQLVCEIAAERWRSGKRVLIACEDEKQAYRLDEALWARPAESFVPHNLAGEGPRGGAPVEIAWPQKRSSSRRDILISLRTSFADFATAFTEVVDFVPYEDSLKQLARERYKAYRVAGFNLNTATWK

Row | Structure (SMILES) | Kd [1] | binding by 1D 19F-NMR [2] | binding by 1D 19F-NMR [3]
1 | Fc1ccc(Oc2cccc(F)c2-c2nnn[nH]2)cc1 [Compound 5, 5-[2-fluoro-6-(4-fluorphenoxy)phenyl]tetrazol-1-ide] | 1300 µM and ~1300 µM | confirming binding | 
2 | c1ccc(Oc2cccc(-c3nn[nH]n3)c2)cc1 [Compound 6] | 1200 µM and ~1200 µM |  | 
3 | O=C(O)CN1C(=O)c2cccc3cccc1c23 [Fragment 1] | ~1100 µM |  | 
4 | O=C(O)CSc1c[nH]c2ccccc12 [Fragment 2] | ~3100 µM |  | 
5 | O=C(O)CCSc1ccccc1 [Fragment 3] | ~2800 µM |  | 
6 | Fc1ccc(-c2nnn[nH]2)cc1 [Fragment 4] | ~3200 µM |  | demonstrated binding
